Experimental data reported in ChEMBL document CHEMBL1150090, “Agastaquinone, a new cytotoxic diterpenoid quinone from Agastache rugosa” (1995).
Values after ≈ are worked out from the molar mass of the structure shown.

What was measured:
Type in all cases: functional
Conditions in all cases: read-out: ED50 (the source's name)
HCT-15 = assay: Cytotoxicity against human HCT15 cells
XF498 = assay: Cytotoxicity against human XF498 cells
A549 = assay: Cytotoxicity against human A549 cells
SK-OV-3 = assay: Cytotoxicity against human SKOV3 cells
SK-MEL-2 = assay: Cytotoxicity against human SK-MEL-2 cells

COC1=C(C(C)C)C(=O)c2c(O)cc3c(c2C1=O)C=C/C(=N\O)C3(C)C
EC50 (HCT-15): 7 µg/mL (≈ 19.7 µM)
EC50 (XF498): 8.5 µg/mL (≈ 23.9 µM)
EC50 (A549): 9.1 µg/mL (≈ 25.6 µM)
EC50 (SK-OV-3): 18.7 µg/mL (≈ 52.6 µM)
EC50 (SK-MEL-2): 11.8 µg/mL (≈ 33.2 µM)

COC1=C(C(C)C)C(=O)c2c(O)cc3c(c2C1=O)C=CC(=O)C3(C)C [AGASTAQUINONE]
EC50 (HCT-15): 5.2 µg/mL (≈ 15.3 µM)
EC50 (XF498): 1.8 µg/mL (≈ 5.29 µM)
EC50 (A549): 6.8 µg/mL (≈ 20 µM)
EC50 (SK-OV-3): 12.8 µg/mL (≈ 37.6 µM)
EC50 (SK-MEL-2): 4.1 µg/mL (≈ 12 µM)
